For experiment [1], the system named is IL-4. In words: Experimental Example 3: dendritic cells plus human peripheral blood mononuclear cells, IL-4 in culture supernatant. It is filed as cell-based. To be noted: culture supernatants; as compared to α-GalCer and α-C-GalCer; FIG. 4. As for the experimental part: (§1) The following experiment was performed for human NKT cell proliferation and IFN-γ production induction.
(§2) Monocytes were prepared from the peripheral blood of a healthy subject by anti-CD14 microbeads (Miltenyi Biotech), and dendritic cells were induced using GM-CSF and IL-4 (Peprotech). To the dendritic cells was added α-GalCer or synthetic glycolipid (α-C-GalCer, compound 11′, compound 51′), human peripheral blood mononuclear cell was added and the cells were cultured.

The subject of experiment [2] is IFN-γ. In words: Experimental Example 3: human NKT cell proliferation and IFN-γ production induction, dendritic cells plus peripheral blood mononuclear cells, IFN-γ in culture supernatant. To be noted: as compared to α-GalCer and α-C-GalCer; for IFN-γ concentration of the culture supernatants: 3 days and 8 days later, FIG. 4 (a), (b); for selectivity of IFN-γ production induction: IFN-γ versus IL-4, FIG. 4 (a)-(d). It is filed as cell-based. As for the experimental part:
as §1, §2
In this experiment, the IFN-γ concentration of the culture supernatants 3 days and 8 days later was measured. As a result, the concentration was very high when stimulated with compound 11′ and compound 51′ as compared to α-GalCer and α-C-GalCer (FIG. 4 (a), (b)).

Experiment [3] has as its system B16 melanoma. In words: Experimental Example 2: anti-liver metastasis effect, survival after intrasplenic transfer of B16 melanoma. The experiment is classed as in vivo, mouse. Conditions: FIG. 3. As for the experimental part:
The following experiment was performed for the anti-liver metastasis effect.
The left side of mouse was opened under anesthesia, and the spleen was exposed. 1×10^6 B16 melanoma was intrasplenically transferred using a 1 mL syringe (TERUMO CORPORATION), maintained for 30 sec, and the blood vessel was sutured. The spleen was isolated and the peritoneal membrane was sutured with a surgical thread (No. 4, Alfresa Pharma Corporation), and the outer skin was joined with a surgical clip. After 3 hr from the cell transfer, α-GalCer and compound 11′ were administered each in an amount of 2, 0.2 or 0.02 μg per mouse from the tail vein and the survival rate of each group was examined.

Experiment [4] concerns IFN-γ. As to the kind of experiment: Experimental Example 1: IFN-γ content of plasma after intraperitoneal injection in C57BL/6 mouse (Cytometric bead array). Conditions: intraperitoneal 100, 10 or 1 μg/kg body weight, plasma 6, 12, 24, 36 and 48 hr after administration, FIG. 1. It is filed as in vivo. As for the experimental part: (§3) Compound 11′ was dissolved in […] saline (manufactured by OTSUKA PHARMACEUTICAL CO., LTD) containing Tween 20 (Bio-Rad) and prepared to a dose of 100 μg/kg body weight, 10 μg/kg body weight or 1 μg/kg body weight C57BL/6 mouse (5 per group), and the compound 11′ solution (200 μL) was intraperitoneally injected.
(§4) α-GalCer was used as a control substance, and 200 μL of each α-GalCer solution prepared to a dose of 100 μg/kg body weight, 10 μg/kg body weight or 1 μg/kg body weight according to a similar method was intraperitoneally injected.
(§5) A group administered with a medium (200 μL of saline containing 0.5% Tween 20) was taken as a negative control. The blood (80 μL) was taken from the orbital plexus venosus immediately before administration and 3, 6, 12, 24, 36 and 48 hr after administration, and the plasma was prepared. The IL-4 content of plasma immediately before administration and 3, 6 and 12 hr after administration, as well as IFN-γ content of plasma immediately before administration and 6, 12, 24, 36 and 48 hr after administration were measured by Cytometric bead array system (BD Biosciences), which is one kind of the ELISA method. The measurement results of IFN-γ production amount are shown FIG. 1 and the measurement results of IL-4 production amount are shown in FIG. 2.

Experiment [5] has as its system IL-4. In words: Experimental Example 1: IL-4 content of plasma after intraperitoneal injection in C57BL/6 mouse (Cytometric bead array). The experiment is classed as in vivo. Conditions: intraperitoneal 100, 10 or 1 μg/kg body weight, plasma 3, 6 and 12 hr after administration, FIG. 2. As for the experimental part:
as §3, §4, §5

Molecules are shown by their SMILES.

In the case of `CCCCCCCCCCCCCCCCCCCCCCCCCC(=O)N[C@@H](CO[C@H]1CC(CO)[C@H](O)C(O)C1O)[C@H](O)[C@H](O)CCCCCCCCCCCCCC` (stereo partly drawn) [compound 11′, (2S,3S,4R)-1-(5a-carba-α-D-galactopyranosyloxy)-2-(hexacosanoylamino)-3,4-octadecanediol], in experiment [1], the IL-4 concentration entry is recorded as “almost the same”. Moreover, in experiment [2], the “IFN-γ concentration of the culture supernatants” value is “very high” and the “selectivity of IFN-γ production induction” value is reported as “selectively induced IFN-γ production”. The survival period entry in experiment [3] (2, 0.2 or 0.02 μg per mouse from the tail vein 3 hr after cell transfer, as compared to the non-treatment group and the α-GalCer administration group) was “extended”. Also, the survival period result in experiment [3] (administration of 0.2 and 0.02 μg per mouse, as compared to the α-GalCer administration group) was “remarkable elongated”. In addition, the IFN-γ production amount entry in experiment [4] was “preferentially produced IFN-γ”. The IL-4 production amount entry in experiment [5] is listed as “in a small amount”.

Take `CCCCCCCCCCCCCCCCCCCCCCCCCC(=O)N[C@@H](CO[C@H]1C[C@H](C)[C@H](O)[C@H](O)[C@H]1O)[C@H](O)[C@H](O)CCCCCCCCCCCCCC` [compound 51′, (2S,3S,4R)-1-(5a-carba-α-D-fucopyranosyloxy)-2-(hexacosanoylamino)-3,4-octadecanediol]: in experiment [1], the IL-4 concentration entry was “almost the same”. Further, in experiment [2], the “IFN-γ concentration of the culture supernatants” value is listed as “very high” and the “selectivity of IFN-γ production induction” value is reported as “selectively induced IFN-γ production”.

Turning to `CCCCCCCCCCCCCCCCCCCCCCCCCC(=O)N[C@@H](COC1OC(CO)C(O)C(O)C1O)[C@H](O)[C@H](O)CCCCCCCCCCCCCC` (stereo partly drawn) [α-GalCer, α-galactosylceramide, reference compound], the IFN-γ production amount result in experiment [4] is recorded as “in large amounts”. For the same compound, the IL-4 production amount result in experiment [5] is recorded as “in large amounts”.

These data come from patent US8299223B2, “Pseudoglycolipid and use thereof” (Riken, priority 2007, dated 2012).
